Reference: the supplement of paper PMC6045584
± gives the standard deviation of the averaged measurements.

Columns and labels:
[1] = compound: Cn1nnc2c(C(N)=O)ncn2c1=O [TEMOZOLOMIDE]; test: surviving fraction relative to DMSO-only wells; higher = less growth inhibition; conditions: exposure time: 5 days
In short: (§1)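 In 384-well plates, 250–500 log-phase tumour cells per well were given 24 hours before five days of continuous exposure to inhibitors at 0.5, 1, 5, 10, 50, 100, 500 and 1000 nM. Surviving fraction is luminescence from CellTiter-Glo, normalised to the median of wells containing DMSO alone. Reading took place after 10 minutes at room temperature.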

[2] = compound: COc1cc2ncnc(Nc3ccc(F)c(Cl)c3)c2cc1NC(=O)/C=C/CN1CCCCC1; test: as above; conditions: exposure time: 5 days
In short: as §1

| Test System | surviving fraction ([1]; 0.5 nM) | surviving fraction ([1]; 1 nM) | surviving fraction ([1]; 5 nM) | surviving fraction ([1]; 10 nM) | surviving fraction ([1]; 50 nM) | surviving fraction ([1]; 100 nM) | surviving fraction ([1]; 500 nM) | surviving fraction ([1]; 1000 nM) | surviving fraction ([2]; 0.5 nM) | surviving fraction ([2]; 1 nM) | surviving fraction ([2]; 5 nM) | surviving fraction ([2]; 10 nM) | surviving fraction ([2]; 50 nM) | surviving fraction ([2]; 100 nM) | surviving fraction ([2]; 500 nM) | surviving fraction ([2]; 1000 nM) |
| --- | --- | --- | --- | --- | --- | --- | --- | --- | --- | --- | --- | --- | --- | --- | --- | --- |
| CCK81 LARGE INTESTINE | 0.766 ± 0.075 | 0.729 ± 0.06 | 0.744 ± 0.041 | 0.771 ± 0.024 | 0.775 ± 0.083 | 0.745 ± 0.048 | 0.789 ± 0.033 | 0.817 ± 0.055 |  |  |  |  |  |  |  |  |
| HMT3552 BREAST | 1.09 ± 0.094 | 1.07 ± 0.015 | 1.05 ± 0.038 | 1.09 ± 0.071 | 1.15 ± 0.06 | 1.19 ± 0.063 | 1.09 ± 0.039 | 1.15 ± 0.022 | 0.902 | 0.831 | 0.845 | 0.802 | 0.827 | 0.792 | 0.65 | 0.302 |
| G292 BONE | 1.01 ± 0.015 | 0.9995 ± 0.0082 | 0.981 ± 0.037 | 1.05 ± 0.018 | 1.04 ± 0.062 | 1.02 ± 0.025 | 0.986 ± 0.048 | 0.992 ± 0.029 | 1.03 ± 0.021 | 0.979 ± 0.054 | 1.05 ± 0.031 | 1.02 ± 0.03 | 0.981 ± 0.052 | 0.9292 ± 0.0084 | 0.693 ± 0.029 | 0.424 ± 0.013 |
| HCC38 BREAST | 1.34 ± 0.19 | 1.25 ± 0.04 | 1.31 ± 0.13 | 1.39 ± 0.032 | 1.33 ± 0.11 | 1.32 ± 0.06 | 1.3 ± 0.26 | 1.33 ± 0.11 | 1.02 ± 0.082 | 1.21 ± 0.21 | 1.16 ± 0.044 | 1.22 ± 0.26 | 0.954 ± 0.26 | 1.07 ± 0.046 | 0.863 ± 0.099 | 0.716 ± 0.06 |
| HS578T BREAST | 0.927 ± 0.11 | 0.886 ± 0.094 | 0.91 ± 0.15 | 0.913 ± 0.054 | 1.05 ± 0.1 | 0.916 ± 0.074 | 0.936 ± 0.12 | 0.942 ± 0.12 | 1.07 ± 0.1 | 1.15 ± 0.14 | 1.03 ± 0.12 | 0.956 ± 0.17 | 0.985 ± 0.2 | 1.09 ± 0.1 | 0.688 ± 0.19 | 0.412 ± 0.091 |
| HMLE3 BREAST | 1.01 ± 0.053 | 1.12 ± 0.085 | 1.01 ± 0.11 | 1.04 ± 0.021 | 1.03 ± 0.039 | 1.03 ± 0.026 | 1.03 ± 0.044 | 1.15 ± 0.079 | 0.953 ± 0.036 | 0.934 ± 0.063 | 0.917 ± 0.084 | 0.953 ± 0.065 | 0.921 ± 0.069 | 0.932 ± 0.052 | 0.793 ± 0.076 | 0.679 ± 0.035 |
| HS57T BREAST | 0.907 ± 0.067 | 0.947 ± 0.056 | 1.01 ± 0.051 | 1.04 ± 0.049 | 1.02 ± 0.033 | 1.03 ± 0.074 | 0.93 ± 0.058 | 0.948 ± 0.071 | 0.945 ± 0.064 | 1.02 ± 0.076 | 1.07 ± 0.024 | 1.04 ± 0.038 | 1.04 ± 0.032 | 1.04 ± 0.05 | 0.86 ± 0.064 | 0.318 ± 0.026 |
| HCC70 BREAST | 0.984 ± 0.016 | 1.04 ± 0.11 | 1.07 ± 0.064 | 1.08 ± 0.054 | 1.06 ± 0.079 | 1.15 ± 0.095 | 1.06 ± 0.09 | 1.09 ± 0.086 | 1.11 ± 0.059 | 1.06 ± 0.11 | 0.926 ± 0.074 | 0.957 ± 0.11 | 0.956 ± 0.11 | 0.975 ± 0.049 | 0.897 ± 0.091 | 0.842 ± 0.031 |
